Patent US20090047567A1, “Biofuel cell, method for producing the same, electronic apparatus, enzyme-immobilized electrode, and method for producing the same” (SONY CORPORATION, priority 2007, published 2009)

Legend:
[1] = Redox potential of the electron mediator by cyclic voltammetry in solution; type: physicochemical
[2] = Cyclic voltammetry of the GC bio-anode with immobilized VK3, no glucose; type: physicochemical; conditions: immobilized VK3 on GC bio-anode; 0.1 M phosphate buffer pH 7.0, glucose absent; vs. Ag|AgCl
Protocol: The surface of a glassy carbon (GC) electrode of 3 mm in diameter which was purchased from BAS Inc. was polished with alumina powder having a particle diameter of 0.05 μm and washed with distilled water. Then, GDH, NADH, DI, and VK3 were immobilized on the GC electrode by a polyion complex method using electrostatic interaction between PAAcNa as polyanion and poly-L-lycine (PLL) as polycation according to the following procedures.
On the GC electrode, 10 μl of an aqueous PLL solution (2% (w/v)), 8 μl of a GDH solution (1 U/μl in a 0.1 M phosphate buffer solution (NaH2PO4 buffer solution) (pH 7.0)), 8 μl of a DI solution (10 U/μl in a phosphate buffer solution), 2 μl of a NADH solution (0.9 μmol/μl in a phosphate buffer solution), 4 μl of a VK3 solution (0.29 M in acetone), and 4 μl of an aqueous PAAcNa solution (0.066% (w/v)) were added in that order. After each of the addition steps, drying was performed at 40° C. for 10 minutes. Before electrochemical measurement, the GC electrode (referred to as a “GC bio-anode” hereinafter) on which an immobilized layer had been formed as described above was rinsed with distilled water for 5 minutes.
Cyclic voltammetry (CV) was performed using the GC bio-anode as a working electrode. […]

[3] = test system: diaphorase (DI); experiment: Michaelis constant Km and rate constant kcat of the enzymatic reaction using the electron mediator as a substrate (cyclic voltammetry in a solution containing NADH and DI); type: biochemical, Bacillus stearothermophilus; conditions: for ten times Km: 10 x Km of the electron mediator for DI, read-out: ten times the determined Km; for Km / kcat: electron mediator as substrate of DI, solution containing sufficient amounts of NADH and DI
Excerpt: GDH (EC1. 1. 1. 47) derived from Bacillus sp. was used as GDH, and DI(EC. 1. 6. 99. −) derived from Bacillus stearothermophilus was used as DI. Both were purchased from Amano Enzyme Inc. (Japan) and directly used without further purification. NADH, poly-L-lycine (PLL, Mw=about 93,800), and sodium polyacrylate (PAANa, Mw=about 240,000) were purchased from Sigma-Aldrich Co. VK3 was purchased from Nacalai Tesque, Inc. (Japan).
Then, the method for measuring the Michaelis constant Km and rate constant kcat of the enzymatic reaction using the electron mediator as a substrate is described.
The following electrochemical equation is established between the Michaelis constant Km and rate constant kcat (R. Matsumoto et al, J. Electroanal. Chem. 535 (2002)37).
wherein Is^lim is the current value of a flat portion of a curve obtained by cyclic voltammetry, nM is the number of electrons of the electron mediator, ns is the number of electrons of the substrate, F is the Faraday constant, A is the electrode surface area, DM is the diffusion constant of the substrate, [E] is the enzyme concentration, and [M]* is the concentration of the electron mediator.

E^o′ vs Ag|AgCl [1]	middle point potential of oxidation and reduction waves [2] [V]	ten times Km [3] [µM]	Km [3] [µM]	kcat [3] [s⁻¹]	SMILES
−0.22	−0.17	4	0.4	630	CC1=CC(=O)c2ccccc2C1=O [VK3, 2-methyl-1,4-naphthoquinone]
−0.26	–	20	2	400	NC1=C(C(=O)O)C(=O)c2ccccc2C1=O [ACNQ, 2-amino-3-carboxy-1,4-naphthoquinone]

SMILES	E^o′ vs Ag|AgCl [1]	middle point potential of oxidation and reduction waves [2] [V]	ten times Km [3] [µM]	Km [3] [µM]	kcat [3] [s⁻¹]
NC1=CC(=O)c2ccccc2C1=O [ANQ, 2-amino-1,4-naphthoquinone]	−0.35	–	360	36	310
